How the values were obtained:
[1] = biological target: reduced folate carrier (Mus musculus); assay: Binding affinity towards Dihydrofolate reductase derived from L1210 cells using [3H]- MTX as the radioligand
Dihydrofolate reductase [2] = biological target: T1, Dihydrofolate reductase (Mus musculus, UniProt P00375); assay: Concentration inhibiting dihydrofolate reductase derived from L1210 cells; type: cell-based
T1 sequence (P00375 whole entry): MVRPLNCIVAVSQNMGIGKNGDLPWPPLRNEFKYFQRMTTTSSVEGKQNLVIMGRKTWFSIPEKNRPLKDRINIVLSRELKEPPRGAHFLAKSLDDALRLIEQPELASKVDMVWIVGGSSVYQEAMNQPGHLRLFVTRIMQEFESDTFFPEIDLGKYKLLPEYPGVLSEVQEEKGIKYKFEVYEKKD

L1210 = assay: Concentration inhibiting L1210 cell growth in culture; type: functional, cell-based; details: Mus musculus
[3] = Concentration inhibiting Glycinamide ribotide formyltransferase of Lactobacillus casei; design: species or system Lacticaseibacillus casei
Dihydrofolate reductase [4] = biological target: T1, Dihydrofolate reductase; assay: Concentration inhibiting Dihydrofolate reductase derived from L1210 cells; type: cell-based
Thymidylate synthase = biological target: T2, Thymidylate synthase (Lactobacillus casei, UniProt P00469); assay: Concentration inhibiting thymidylate synthase enzyme of Lactobacillus casei; design: species or system Lacticaseibacillus casei
T2 sequence (P00469 whole entry): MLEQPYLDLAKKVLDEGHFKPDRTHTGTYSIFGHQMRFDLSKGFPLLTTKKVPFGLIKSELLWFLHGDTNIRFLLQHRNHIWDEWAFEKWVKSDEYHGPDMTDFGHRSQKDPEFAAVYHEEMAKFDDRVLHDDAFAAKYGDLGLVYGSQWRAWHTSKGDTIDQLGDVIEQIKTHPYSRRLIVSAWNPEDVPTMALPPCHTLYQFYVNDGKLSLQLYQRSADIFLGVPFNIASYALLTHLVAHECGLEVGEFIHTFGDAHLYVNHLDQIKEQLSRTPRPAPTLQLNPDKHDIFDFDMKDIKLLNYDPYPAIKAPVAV

Dihydrofolate reductase [5] = biological target: T3, Dihydrofolate reductase (Homo sapiens, UniProt P00374); assay: Inhibitory activity towards dihydrofolate reductase derived from human manca leukemia cells
T3 sequence (P00374 whole entry): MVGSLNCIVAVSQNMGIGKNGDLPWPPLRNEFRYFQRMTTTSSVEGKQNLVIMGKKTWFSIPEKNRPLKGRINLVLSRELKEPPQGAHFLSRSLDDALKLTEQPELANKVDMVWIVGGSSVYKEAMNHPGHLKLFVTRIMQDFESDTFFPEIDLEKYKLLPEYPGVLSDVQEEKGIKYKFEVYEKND

SMILES | IC50 (L1210) [nM] | IC50 (Thymidylate synthase) [nM] | also measured
Nc1nc(N)c2nc(CCc3ccc(C(=O)N[C@@H](CCC(=O)O)C(=O)O)cc3)cnc2n1 | 1.5 | – | Ki [1]: 1200 nM; Ki (Dihydrofolate reductase [2]): 0.0034 nM
CCC(Cc1ccc(C(=O)NC(CCC(=O)O)C(=O)O)cc1)c1cnc2nc(N)nc(N)c2n1 (configuration not stated) | 4.7 | > 100000 | IC50 [3]: > 50000 nM; Ki (Dihydrofolate reductase [4]): 0.0055 nM
CC(Cc1ccc(C(=O)NC(CCC(=O)O)C(=O)O)cc1)c1cnc2nc(N)nc(N)c2n1 (configuration not stated) | 0.24 | > 100000 | IC50 (Dihydrofolate reductase [5]): 40 nM
CCC(Cc1cnc2nc(N)nc(N)c2n1)c1ccc(C(=O)N[C@@H](CCC(=O)O)C(=O)O)cc1 (some centres not stated) [EDATREXATE] | 0.65 | – | –
CN(Cc1cnc2nc(N)nc(N)c2n1)c1ccc(C(=O)N[C@@H](CCC(=O)O)C(=O)O)cc1 [METHOTREXATE] | 5 | – | –

From ChEMBL document CHEMBL1124936, “Synthesis and antifolate properties of 9-alkyl-10-deazaminopterins” (J Med Chem, 1990)
